Literature values in patent US7375230B2, “Fermentation and purification of migrastatin and analog” (Kosan Biosciences, Inc., priority 2000, dated 2008).

Tests used:
[1] = system: mouse melanoma B16 cells; settings: compared with clarithromycin and erythromycin
[2] = system: human esophageal cancer EC17 cells; settings: compared with clarithromycin and erythromycin

CO[C@H]1/C=C/CC/C=C/C(=O)O[C@H]([C@H](C)C(=O)CCCC2CC(=O)NC(=O)C2)/C(C)=C\[C@@H](C)[C@@H]1O [Migrastatin, migrastatin]
effectiveness against the migration of cells [1]: more effective than clarithromycin and erythromycin | effectiveness against the migration of cells [2]: more effective than clarithromycin and erythromycin
